Laboratory results from US6262095A, “Use of tricyclic derivatives of 1,4-dihydro-1,4-dioxo-1H-naphthalene, novel compounds obtained and their application in theraphy” (Laboratoire Innothera, priority 1995, dated 2001).
Like-named read-outs stand apart in the source and are kept apart here.

Tests used:
[1] = tested on: saphenous vein in rabbits; assay: Contractile effect on the rabbit saphenous vein precontracted by a depolarizing physiological solution (K+ 40 mM); type: cell-based; settings: precontracted with 40 mM potassium; for EC50: read-out: ED50 (the source's name)
Description: The contractile effects are measured in vitro under static conditions on vascular capacitance or resistance rings of saphenous, femoral, jugular, mesenteric, and caval veins . . . and on femoral, carotid, basilar, or mesenteric arteries, as well as the thoracic or abdominal aorta . . . in rats (Wistar, 200-250 g), rabbits (New Zealand, 2-2.5 kg), guinea pigs (Dunkin Hartley 250-300 g).
The rings are placed in a chamber for isolated organs (25 mL for capacitance vessels and 2.5 mL for resistance vessels according to Mulvany), and maintained under isometric conditions using two rigid threads inserted inside the vessel, avoiding causing damage to the endothelium. The vessels are bathed in a modified Krebs solution (in mM: NaCl=118; KCl=4.6; CaCl2 =2.5; MgSO4 =1.2; KH2 PO4 =1.17; NaHCO3 =25; glucose=11), continuously aerated using a gaseous mixture of 95% O2 and 5% Co2, at a pH=7.4, and regulated by thermostat at 37° C. The rings are adjusted to their optimal point as far as the tension-length relationship is concerned. The tensions developed generate an electrical signal through the intermediary of a force sensor (Wheatstone bridge). […] The pharmacological studies are carried out after a few standardized preliminary contractile stimulations using a depolarizing solution (hyperpotassic type obtained by replacing NaCl with KCl in equimolar quantities), along with rinsings and periods of equilibration in a pure physiological solution. The presence of endothelium is verified by the relaxation induced by increasing the concentration of acetylcholine after the stabilization of a vascular precontraction.
The forces of contraction developed by the vascular rings in response to the different compounds are studied on quiescent or electrically stimulated vessels (5-8 Hz), by a "physiological" depolarizing hyperpotassic solution (KCl: 20, 40 mM), by noradrenaline (increasing concentrations), [and by] serotonin (increasing concentrations).
The contractions are expressed in mg force or as a percentage of the maximum contraction at the time of the depolarization with a "physiological" hyperpotassic solution.
The contractile effect of different compounds on the saphenous vein in rabbits, precontracted by a depolarizing "physiological" solution with a potassium concentration of 40 mM, is given as an illustration; the maximum effect produced by each compound is expressed as a percentage of the maximum contraction induced by depolarizing hyperpotassic solutions and as value of ED50): […]

[2] = tested on: hyperpermeability induced by zymosan in rats; assay: Inflammatory hyperpermeability induced by zymosan in rats; type: in vivo, rat (Wistar); settings: rat, oral
Description: The vascular permeability is studied in vivo by measuring the extravasation of albumin, the quantity of which is determined using an albumin-binding dye (Evans blue).
The hyperpermeability is induced by the intradermal injection of a solution of histamine, bradykinin, or zymosan.
The abdominal walls of the rats (Wistar, 200-230 g) are shorn 1 h before the start of the experiment. The product to be tested is injected by the intraperitoneal route or orally 1-4 h before the sacrifice. The rats are anesthetized with a halothane mixture. They then receive an intradermal injection in their abdomen of 0.10 or 0.15 mL (or for histamine 6.7 or […]) of inflammatory agent and an intravenous injection of 1 mL of 0.5% Evans blue solution in the vein of the penis. These injections are carried out 30 min before the sacrificing.
30 min after these two injections, the rats are sacrificed by cervical dislocation.
At the site of the injection of the inflammatory agent, the skin is cut and placed into glass tubes with a ground[-glass] neck containing 3 mL of fuming hydrochloric acid. […] After allowing the preparation to stand for 30 min, 7 mL of dichloromethane are added. The tubes are periodically agitated for 1 h. The aqueous phase is eliminated by aspiration, and the organic "dichloromethane" phase is filtered. The optical densities are quantified by absorption spectrophotometry at a wavelength of 620 nm, against a blank [control] containing only dichloromethane. The averages of the optical densities of the different lots of treated or control animals are calculated, then a percentage of variation of the values corresponding to the treated [experimental] animals compared to those of the control animals is calculated.

[3] = tested on: capillary resistance of rats; assay: Capillary resistance of rats after oral administration (petechial index); type: in vivo, rat (Wistar); settings: rat
Description: The increase in the capillary resistance is evaluated by the modification of the petechial index (negative pressure inducing the extravasation of the erythrocytes), measured by a method derived from the angiosterrometer of Parrot.
The studies are carried out on male Wistar rats with an average weight of 200 g (approximate age six weeks). The bottom area of the back is shorn, then the hair is pulled by means of a paste based on a derivative of thioglycolic acid and calcium hydroxide. After approximately 30 min, the skin is abundantly rinsed and dried.
On the day of the study, the rats are maintained without constraint. A low pressure of 80 mm of mercury is applied. If the petechiae (extravasation of erythrocytes) have not appeared within 15 sec, the low pressure is increased as a countermeasure, keeping the suction cap at the same place.
The minimum low pressure where petechias appear, in mm of mercury, expresses the basal capillary resistance (before any treatment). Two measurements are made for each test at different sites on of the back.
The rats are treated by the oral route. […] All the measurements are done in the blind mode.
A percentage of variation in the capillary resistances of the animals treated compared to their basal capillary resistance is calculated for each compound studied, at each treatment time and compared with the control group (excipient only) or the reference group.

mice = assay: Single oral administration toxicity in mice; type: in vivo, mouse; settings: single oral administration of 500 mg/kg
Text: Moreover, the compounds of the invention and their possible salts have a very low toxicity.

[4] = Oryctolagus cuniculus, % of maximum contraction induced by hyperpotassic solutions
[5] = 0.1 mg/kg, ** granulometry: 0.6-0.7 mm

4,9-Dihydro-4,9-dioxo-2-(2-furyl)-5-hydroxynaphtho-[2,3-d]thiazole or 4,9-Dihydro-4,9-dioxo-2-(2-furyl)-8-hydroxynaphtho-[2,3-d]thiazole [Example 57]
Emax (% maximum contraction) ([1]; % of maximum contraction induced by hyperpotassic solutions): 22±3 % maximum contraction
EC50 [1]: 41 nM

Cc1nc2c(n1C)C(=O)c1ccccc1C2=O.O=S(=O)(O)O [Example 1, 4,9-Dihydro-4,9-dioxo-1,2-dimethyl-1H-naphtho[2,3-d]imidazole sulfate]
Zymosan-induced hyperpermeability, effect after 2 h ([2]; 5 mg/kg): -28 % of the control
Zymosan-induced hyperpermeability, effect after 4 h ([2]; 5 mg/kg): -28 % of the control
Increase of capillary resistance, effects after 4 h ([3]; 0.1 mg/kg): 37 % of the control
Increase of capillary resistance, effect after 6 h ([3]; 0.1 mg/kg): 35 % of the control

O=C1c2ccccc2C(=O)c2[nH]c(-c3ccccc3F)nc21 [Example 2, 4,9-Dihydro-4,9-dioxo-2-(2-fluorophenyl)-1H-naphtho[2,3-d]imidazole]
Increase of capillary resistance, effects after 4 h ([3]; 0.1 mg/kg): 25 % of the control
Increase of capillary resistance, effect after 6 h ([3]; 0.1 mg/kg): 28 % of the control

O=C1c2ccccc2C(=O)c2oc(-c3ccc(F)cc3)nc21 [Example 5, 4,9-Dihydro-4,9-dioxo-2-(4-fluorophenyl)-naphtho[2,3-d]oxazole]
toxic effect and mortality (mice): no observable toxic effect and no mortality

Cc1cccc(-c2nc3c(o2)C(=O)c2ccccc2C3=O)c1 [Example 7, 4,9-Dihydro-4,9-dioxo-2-(3-methylphenyl)-naphtho[2,3-d]oxazole]
Emax [1, 4]: 17 ± 2%
EC50 ([1]; Oryctolagus cuniculus): 36 nM

O=C1c2ccccc2C(=O)c2oc(-c3ccc(Cl)cc3)nc21 [Example 10, 2-(4-Chlorophenyl)-4,9-dihydro-4,9-dioxo-naphtho[2,3-d]oxazole]
Increase of capillary resistance, effects after 4 h ([3]; 0.1 mg/kg): 25 % of the control
Increase of capillary resistance, effect after 6 h ([3]; 0.1 mg/kg): 46 % of the control

O=C1c2ccccc2C(=O)c2sc(-c3ccc(F)cc3)nc21 [Example 14, 4,9-Dihydro-4,9-dioxo-2-(4-fluorophenyl)naphtho[2,3-d]thiazole]
Zymosan-induced hyperpermeability, effect after 2 h ([2]; 0.1 mg/kg): -31 % of the control
Zymosan-induced hyperpermeability, effect after 4 h ([2]; 0.1 mg/kg): -15 % of the control

O=C1c2ccccc2C(=O)c2sc(-c3ccc(F)cc3F)nc21 [Example 15, 2-(2,4-Difluorophenyl)-4,9-dihydro-4,9-dioxo-naphtho[2,3-d]thiazole]
Increase of capillary resistance, effects after 4 h ([3]; 0.1 mg/kg): 20 % of the control
Increase of capillary resistance, effect after 6 h ([3]; 0.1 mg/kg): 27 % of the control

O=C1c2ccccc2C(=O)c2sc(-c3ccncc3)nc21.O=S(=O)(O)O [Example 17, 4,9-Dihydro-4,9-dioxo-2-(4-pyridyl)-naphtho[2,3-d]thiazole sulfate]
Zymosan-induced hyperpermeability, effect after 2 h ([2]; 0.1 mg/kg): -15 % of the control
Zymosan-induced hyperpermeability, effect after 4 h ([2]; 0.1 mg/kg): -23 % of the control

O=C1c2ccccc2C(=O)c2sc(-c3ccoc3)nc21 [Example 18, 4,9-Dihydro-4,9-dioxo-2-(3-furyl)naphtho[2,3-d]thiazole]
Emax [1, 4]: 39 ± 6%
EC50 ([1]; Oryctolagus cuniculus): 88 nM
Increase of capillary resistance, effects after 4 h ([3]; 5 mg/kg): 25 % of the control
Increase of capillary resistance, effect after 6 h ([3]; 5 mg/kg): 28 % of the control

O=C1c2ccccc2C(=O)c2sc(-c3ccc(Cl)o3)nc21 [Example 19, 2-(5-Chloro-furan-2-yl)-4,9-dihydro-4,9-dioxo-naphtho[2,3-d]thiazole]
Emax [1, 4]: 20 ± 8%
EC50 ([1]; Oryctolagus cuniculus): 75 nM

COc1ccc2c(c1)C(=O)c1sc(-c3ccccc3)nc1C2=O [Example 25, 4,9-Dihydro-4,9-dioxo-7-methoxy-2-phenylnaphtho[2,3-d]thiazole]
Zymosan-induced hyperpermeability, effect after 2 h ([2]; 0.1 mg/kg): -14 % of the control
Zymosan-induced hyperpermeability, effect after 4 h ([2]; 0.1 mg/kg): -17 % of the control

COc1ccc2c(c1)C(=O)c1nc(-c3ccccc3)sc1C2=O [Example 26, 4,9-Dihydro-4,9-dioxo-6-methoxy-2-phenylnaphtho[2,3-d]thiazole]
Zymosan-induced hyperpermeability, effect after 2 h ([2]; 0.1 mg/kg): -14 % of the control
Zymosan-induced hyperpermeability, effect after 4 h ([2]; 0.1 mg/kg): -24 % of the control

O=C1c2ccccc2C(=O)c2sc(-n3cccc3)nc21 [Example 28, 4,9-Dihydro-4,9-dioxo-2-(1-pyrrolyl)-naphtho-[2,3]-thiazole]
Emax [1, 4]: 29 ± 2%
EC50 ([1]; Oryctolagus cuniculus): 37 nM
Zymosan-induced hyperpermeability, effect after 2 h ([2]; 5 mg/kg): -29 % of the control
Zymosan-induced hyperpermeability, effect after 4 h ([2]; 5 mg/kg): 0 % of the control
Increase of capillary resistance, effects after 4 h [3, 5]: 10 % of the control
Increase of capillary resistance, effect after 6 h [3, 5]: 13 % of the control

Cc1ccc(-c2nc3c(s2)C(=O)c2ccccc2C3=O)o1 [Example 38, 4,9-Dihydro-4,9-dioxo-2-(5-methyl-2-furyl)naphtho-[2,3-d]thiazole]
Emax [1, 4]: 12 ± 1%
EC50 ([1]; Oryctolagus cuniculus): 160 nM
Zymosan-induced hyperpermeability, effect after 2 h ([2]; 0.1 mg/kg): -12 % of the control
Zymosan-induced hyperpermeability, effect after 4 h ([2]; 0.1 mg/kg): -3 % of the control

COc1ccc2c(c1)C(=O)c1sc(-c3ccco3)nc1C2=O [Example 59, 4,9-Dihydro-4,9-dioxo-2-(2-furyl)-7-methoxynaphtho-[2,3-d]thiazole]
Emax [1, 4]: 18 ± 4%
EC50 ([1]; Oryctolagus cuniculus): 53 nM
Zymosan-induced hyperpermeability, effect after 2 h ([2]; 0.1 mg/kg): -13 % of the control
Zymosan-induced hyperpermeability, effect after 4 h ([2]; 0.1 mg/kg): +21 % of the control

Nc1nc2c(s1)C(=O)c1ccccc1C2=O [Example i, 2-Amino-4,9-dihydro-4,9-dioxonaphtho[2,3-d]thiazole]
Emax [1, 4]: 18 ± 1%
EC50 ([1]; Oryctolagus cuniculus): 90 nM

O=C1c2ccccc2C(=O)c2sc(-c3ccccn3)nc21 [Example k, 4,9-Dihydro-4,9-dioxo-2-(2-pyridyl)-naphtho[2,3-d]thiazole]
Emax [1, 4]: 26 ± 9%
EC50 ([1]; Oryctolagus cuniculus): 70 nM
